Test results from article PMC9402538, “Rational design of a sensitivity-enhanced tracer for discovering efficient APC–Asef inhibitors” (Nature Communications, 2022).
Where “and” joins values, the source holds several entries; their conditions need not be identical. Identical values can stand only once. Like-named read-outs stand apart in the source and are kept apart here. Where a SMILES comes first, the peptide text is derived from it. The star is where a group is joined. Pyrrole(1-Me-2-CO) = Cn1cccc1C(=O)*; Pyrrole2CO = O=C(c1ccc[nH]1)*; X2 = O=C(c1cncs1)*

Legend:
[1] = molecular target: T1, APC (303–739) (Homo sapiens, UniProt P25054); experiment: FP competitive assay using tracer 7; assay type: binding; conditions: for IC50: Table 3 source data; for FP(mp): Tracer 7, replicate wells
T1 sequence (P25054 303-739): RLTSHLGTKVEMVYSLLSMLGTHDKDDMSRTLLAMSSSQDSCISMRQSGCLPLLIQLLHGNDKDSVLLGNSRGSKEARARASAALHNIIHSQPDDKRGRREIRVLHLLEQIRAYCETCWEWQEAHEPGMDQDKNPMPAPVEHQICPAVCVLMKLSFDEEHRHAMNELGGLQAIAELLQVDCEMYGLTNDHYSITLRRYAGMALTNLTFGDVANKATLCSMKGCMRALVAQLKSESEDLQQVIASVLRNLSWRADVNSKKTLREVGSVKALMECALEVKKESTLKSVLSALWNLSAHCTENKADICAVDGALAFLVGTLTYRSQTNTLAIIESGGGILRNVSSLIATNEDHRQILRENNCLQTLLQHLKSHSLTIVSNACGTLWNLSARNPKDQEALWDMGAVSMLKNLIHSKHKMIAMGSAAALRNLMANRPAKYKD
Method in brief: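 Fluorescence polarization competition: APC (303–739) in 50 mM HEPES pH 7.5, 300 mM NaCl, 1 mM EDTA, 1 mM DTT, preincubated 1 h at room temperature with serially diluted peptides. FITC tracer 7 then added (400 nM stock) and FP read after 1.5 h at room temperature; IC50 by nonlinear regression, triplicates.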

[2] = molecular target: T2, APC (Homo sapiens, UniProt P25054); experiment: FP competitive assay using tracer 1; assay type: binding; conditions: for IC50: Supplementary Table 4, read-out: IC50, Tracer 1; for FP(mp): Tracer 1, triplicate raw readings
T2 sequence (P25054 303-739): T1 sequence (P25054 303-739)
Procedure: In our previous study, we established an FP assay for screening APC–Asef inhibitors using FITC-labeled tracer 1 (Ac–^176[…][FITC]^195–NH2)[16]. […]. However, their Kd values measured by isothermal titration calorimetry (ITC) actually vary up to more than 20 times[16],[17]. […].
FITC-labeled tracer peptides were obtained from Changzhou Kanglong Biotech Ltd. (Changzhou, Jiangsu, China). […]. The FP signal changes upon tracer binding were measured after 1.5 h of incubation using a Synergy neo microplate reader (BioTek Instruments, Inc.) and plotted against the protein concentration. The corresponding EC50 values were generated by fitting the curves with a nonlinear regression model. […]. To make a working solution, APC (303–739) was diluted in FP buffer (50 mM HEPES, pH 7.5, 300 mM NaCl, 1 mM EDTA, 1 mM DTT). […] The FP signals were measured after 1.5 h of incubation at room temperature using a Synergy neo microplate reader. Three controls were included on each plate, i.e., blank (without protein and tracer), 100% inhibition (free tracer only), and 0% inhibition (protein/tracer complex only) controls. All experiments were performed in triplicate. The IC50 values of peptides were calculated by nonlinear regression analysis using GraphPad Prism 7.0 software.

[3] = Repeat 1, read-out: IC50(μM) Repeat 1
[4] = Repeat 2, read-out: IC50(μM) Repeat 2
[5] = Repeat 3, read-out: IC50(μM) Repeat 3
[6] = mean of 3 repeats, read-out: IC50(μM) mean

| SMILES | IC50 [1, 3] | IC50 [1, 4] | IC50 [1, 5] | FP(mp) ([1]; Conc. 0.0061 μM) | FP(mp) ([1]; Conc. 0.0122 μM) | FP(mp) ([1]; Conc. 0.0244 μM) | FP(mp) ([1]; Conc. 0.05 μM) | FP(mp) ([1]; Conc. 0.10 μM) | FP(mp) ([1]; Conc. 0.20 μM) | FP(mp) ([1]; Conc. 0.39 μM) | FP(mp) ([1]; Conc. 0.78 μM) | FP(mp) ([1]; Conc. 1.56 μM) | FP(mp) ([1]; Conc. 3.13 μM) | FP(mp) ([1]; Conc. 6.25 μM) | FP(mp) ([1]; Conc. 12.50 μM) | FP(mp) ([1]; Conc. 25.00 μM) | FP(mp) ([1]; Conc. 50.00 μM) | IC50 [1, 6] | IC50 [2] | FP(mp) ([2]; Conc. 0.05 μM) | other results |
| --- | --- | --- | --- | --- | --- | --- | --- | --- | --- | --- | --- | --- | --- | --- | --- | --- | --- | --- | --- | --- | --- |
| CC(C)C[C@H](NC(=O)[C@H](CO)NC(=O)[C@H](CCC(=O)O)NC(=O)CNC(=O)[C@H](C)NC(=O)c1cncs1)C(=O)N[C@@H](Cc1ccc(O)cc1)C(=O)N[C@@H](CCC(=O)O)C(N)=O [MAI-508] (X2-AGESLYE-NH2) | 0.221 µM | 0.194 µM | 0.241 µM | 306 mp | 306 mp and 305 mp and 307 mp | 290 mp (2×) and 289 mp | 268 mp and 265 mp and 269 mp | 236 mp and 233 mp (2×) | 190 mp and 195 mp and 192 mp | 150 mp and 147 mp and 149 mp | 113 mp (2×) and 114 mp | 85 mp and 90 mp and 86 mp | 73 mp and 71 mp and 74 mp | 65 mp and 60 mp and 61 mp | 61 mp and 56 mp and 59 mp | 52 mp and 55 mp and 57 mp | 58 mp and 50 mp and 54 mp | 0.219 µM | 480 ± 160 nM | 185 mp and 183 mp and 179 mp | FP(mp) ([2]; Conc. 0.10 μM): 180 mp and 181 mp and 176 mp; FP(mp) ([2]; Conc. 0.20 μM): 173 mp and 176 mp; FP(mp) ([2]; Conc. 0.39 μM): 162 mp and 161 mp; FP(mp) ([2]; Conc. 0.78 μM): 105 mp and 98 mp and 106 mp; FP(mp) ([2]; Conc. 1.56 μM): 54 mp and 56 mp; FP(mp) ([2]; Conc. 3.13 μM): 52 mp and 48 mp and 49 mp; FP(mp) ([2]; Conc. 6.25 μM): 50 mp and 47 mp and 48 mp; FP(mp) ([2]; Conc. 12.50 μM): 47 mp and 46 mp; FP(mp) ([2]; Conc. 25.00 μM): 50 mp and 48 mp and 46 mp; FP(mp) ([2]; Conc. 100.00 μM): 50 mp and 47 mp; FP(mp) ([2]; Conc. 200.00 μM): 51 mp and 48 mp and 49 mp; FP(mp) ([2]; Conc. 400.00 μM): 51 mp and 49 mp |
| CC(C)C[C@H](NC(=O)[C@H](CO)NC(=O)[C@H](CCC(=O)O)NC(=O)CNC(=O)[C@H](C)NC(=O)c1ccc[nH]1)C(=O)N[C@@H](Cc1ccc(O)cc1)C(=O)N[C@@H](CCC(=O)O)C(N)=O [MAI-509] (Pyrrole2CO-AGESLYE-NH2) | 0.595 µM | 0.526 µM | 0.599 µM | 288 mp and 294 mp and 291 mp | 287 mp and 290 mp and 289 mp | 290 mp (2×) and 292 mp | 281 mp and 276 mp and 278 mp | 261 mp and 262 mp and 266 mp | 233 mp and 232 mp and 238 mp | 196 mp and 201 mp and 193 mp | 163 mp and 164 mp (2×) | 129 mp and 126 mp (2×) | 103 mp and 101 mp (2×) | 81 mp and 84 mp and 83 mp | 71 mp and 69 mp and 67 mp | 65 mp and 63 mp (2×) | 63 mp and 60 mp (2×) | 0.573 µM | 640 ± 170 nM | 182 mp and 179 mp | FP(mp) ([2]; Conc. 0.10 μM): 180 mp and 177 mp; FP(mp) ([2]; Conc. 0.20 μM): 175 mp and 169 mp and 173 mp; FP(mp) ([2]; Conc. 0.39 μM): 157 mp and 159 mp and 160 mp; FP(mp) ([2]; Conc. 0.78 μM): 120 mp and 128 mp and 126 mp; FP(mp) ([2]; Conc. 1.56 μM): 72 mp and 73 mp; FP(mp) ([2]; Conc. 3.13 μM): 56 mp and 54 mp; FP(mp) ([2]; Conc. 6.25 μM): 52 mp and 55 mp and 51 mp; FP(mp) ([2]; Conc. 12.50 μM): 50 mp and 51 mp and 47 mp; FP(mp) ([2]; Conc. 25.00 μM): 50 mp and 48 mp; FP(mp) ([2]; Conc. 50.00 μM): 48 mp and 50 mp and 46 mp; FP(mp) ([2]; Conc. 100.00 μM): 50 mp and 51 mp and 47 mp; FP(mp) ([2]; Conc. 200.00 μM): 48 mp and 50 mp; FP(mp) ([2]; Conc. 400.00 μM): 57 mp and 53 mp |
| CC(C)C[C@H](NC(=O)[C@H](CO)NC(=O)[C@H](CCC(=O)O)NC(=O)CNC(=O)[C@H](C)NC(=O)c1cccn1C)C(=O)N[C@@H](Cc1ccc(O)cc1)C(=O)N[C@@H](CCC(=O)O)C(N)=O [MAI-510] ({Pyrrole(1-Me-2-CO)}-AGESLYE-NH2) | 0.366 µM | 0.34 µM | 0.303 µM | 303 mp | 296 mp and 295 mp and 301 mp | 291 mp and 290 mp and 295 mp | 274 mp and 278 mp and 275 mp | 247 mp and 251 mp and 254 mp | 216 mp and 217 mp and 220 mp | 171 mp and 173 mp and 169 mp | 131 mp and 132 mp (2×) | 98 mp and 97 mp and 95 mp | 71 mp and 73 mp and 75 mp | 62 mp and 60 mp and 65 mp | 52 mp and 53 mp and 55 mp | 50 mp (2×) and 55 mp | 47 mp and 50 mp (2×) | 0.336 µM | 490 ± 130 nM | 182 mp and 181 mp and 180 mp | FP(mp) ([2]; Conc. 0.10 μM): 170 mp and 178 mp and 179 mp; FP(mp) ([2]; Conc. 0.20 μM): 158 mp and 172 mp; FP(mp) ([2]; Conc. 0.39 μM): 146 mp and 158 mp and 159 mp; FP(mp) ([2]; Conc. 0.78 μM): 82 mp and 112 mp and 116 mp; FP(mp) ([2]; Conc. 1.56 μM): 61 mp and 63 mp and 64 mp; FP(mp) ([2]; Conc. 3.13 μM): 52 mp and 51 mp and 53 mp; FP(mp) ([2]; Conc. 6.25 μM): 51 mp and 50 mp; FP(mp) ([2]; Conc. 12.50 μM): 49 mp and 48 mp; FP(mp) ([2]; Conc. 25.00 μM): 49 mp and 46 mp and 48 mp; FP(mp) ([2]; Conc. 50.00 μM): 46 mp and 47 mp and 50 mp; FP(mp) ([2]; Conc. 100.00 μM): 48 mp and 49 mp and 50 mp; FP(mp) ([2]; Conc. 200.00 μM): 48 mp and 47 mp; FP(mp) ([2]; Conc. 400.00 μM): 50 mp and 52 mp |
